Measured values from US8247211B2, “Glycopeptide antibiotics” (American Cyanamid Company, priority 2001, dated 2012).

Key:
Experiment in all cases: In vitro antibacterial evaluation: minimum inhibitory concentration (MIC), broth dilution method
Format in all cases: cell-based
Staphylococcus sp. = tested on: Staphylococcus sp.
Method in brief: (§1)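 Susceptibility determined by NCCLS-recommended broth dilution (M7-A2), Muller-Hinton II […]. Concentration span 64-0.06 μg/mL, inoculum 5×10^5 CFU/mL. Isolates include strains resistant to methicillin, penicillin and/or vancomycin.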

Streptococcus sp. = tested on: Streptococcus sp.
Method in brief: as §1

Enterococcus sp. = tested on: Enterococcus sp.
Method in brief: as §1

Escherichia coli = tested on: Escherichia coli
Method in brief: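 Test strains, among them recent clinical isolates carrying methicillin, penicillin and/or vancomycin resistance, were inoculated at 5×10^5 CFU/mL. A broth dilution series spanning 64-0.06 μg/mL in Muller-Hinton II […] (NCCLS M7-A2) defined the MIC as the lowest growth-inhibiting concentration.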

[1] = broth dilution, 5×10^5 CFU/mL, 18 hours at 35° C.
[2] = strain ATCC 29213, broth dilution, 18 hours at 35° C.
[3] = strain GC 1131, broth dilution, 18 hours at 35° C.
[4] = strain GC 3051, broth dilution, 18 hours at 35° C.
[5] = strain GC 3053, broth dilution, 18 hours at 35° C.
[6] = strain GC 4541, broth dilution, 18 hours at 35° C.
[7] = strain GC 4542, broth dilution, 18 hours at 35° C.
[8] = strain GC 4543, broth dilution, 18 hours at 35° C.
[9] = strain GC 4544, broth dilution, 18 hours at 35° C.
[10] = strain GC 4545, broth dilution, 18 hours at 35° C.
[11] = strain GC 4546, broth dilution, 18 hours at 35° C.
[12] = strain GC 4547, broth dilution, 18 hours at 35° C.
[13] = strain GC 4548, broth dilution, 18 hours at 35° C.
[14] = strain GC 4549, broth dilution, 18 hours at 35° C.
[15] = strain GC 4551, broth dilution, 18 hours at 35° C.
[16] = strain GC 6257, broth dilution, 18 hours at 35° C.
[17] = broth dilution, inoculum 5×10^5 CFU/mL, 18 hours at 35° C.
[18] = 5×10^5 CFU/mL, 18 hours at 35° C.

CC(C)=CCOc1cccc(C2OCC3OC(OC4C(CO)OC(Oc5ccc(CC6NC(=O)C(C(C)c7ccccc7)NC(=O)CNC(=O)C(CO)NC(=O)C(C(O)C7CNC(=N)N7C7OC(CO)C(O)C(O)C7O)NC(=O)C(C(O)C7CNC(=N)N7)NC6=O)cc5)C(O)C4O)C(O)C(O)C3O2)c1 (stereo not drawn) [Example 165]
8 µg/mL: MIC Coagulase Negative Staphylococcus (GC 4548) (Staphylococcus sp.; [1]) | MIC Coagulase Negative Staphylococcus (GC 4549) (Staphylococcus sp.; [1]) | MIC Coagulase Negative Staphylococcus (GC 6257) (Staphylococcus sp.; [1]) | MIC Coagulase Negative Staphylococcus (GC 4548) (Staphylococcus sp.; [13]) | MIC Coagulase Negative Staphylococcus (GC 4549) (Staphylococcus sp.; [14]) | MIC Coagulase Negative Staphylococcus (GC 6257) (Staphylococcus sp.; [16])
1 µg/mL: MIC Streptococcus agalactiae (GC 4564) (Streptococcus sp.; [17]) | MIC Streptococcus agalactiae (GC 4564) (Streptococcus sp.; strain GC 4564)
16 µg/mL: MIC Coagulase Negative Staphylococcus (GC 4547) (Staphylococcus sp.; [1]) | MIC Coagulase Negative Staphylococcus (GC 4551) (Staphylococcus sp.; [1]) | MIC Staphylococcus aureus (ATCC 29213) (Staphylococcus sp.; [1]) | MIC Staphylococcus aureus (GC 1131) (Staphylococcus sp.; [1]) | MIC Staphylococcus aureus (GC 3053) (Staphylococcus sp.; [1]) | MIC Staphylococcus aureus (GC 4541) (Staphylococcus sp.; [1]) | MIC Staphylococcus aureus (GC 4542) (Staphylococcus sp.; [1]) | MIC Staphylococcus aureus (GC 4544) (Staphylococcus sp.; [1]) | MIC Staphylococcus aureus (GC 4545) (Staphylococcus sp.; [1]) | MIC Staphylococcus aureus-SMITH (GC 4543) (Staphylococcus sp.; [1]) | MIC Staphylococcus haemolyticus (GC 4546) (Staphylococcus sp.; [1]) | MIC Staphylococcus aureus (ATCC 29213) (Staphylococcus sp.; [2]) | MIC Staphylococcus aureus (GC 1131) (Staphylococcus sp.; [3]) | MIC Staphylococcus aureus (GC 3053) (Staphylococcus sp.; [5]) | MIC Staphylococcus aureus (GC 4541) (Staphylococcus sp.; [6]) | MIC Staphylococcus aureus (GC 4542) (Staphylococcus sp.; [7]) | MIC Staphylococcus aureus-SMITH (GC 4543) (Staphylococcus sp.; [8]) | MIC Staphylococcus aureus (GC 4544) (Staphylococcus sp.; [9]) | MIC Staphylococcus aureus (GC 4545) (Staphylococcus sp.; [10]) | MIC Staphylococcus haemolyticus (GC 4546) (Staphylococcus sp.; [11]) | MIC Coagulase Negative Staphylococcus (GC 4547) (Staphylococcus sp.; [12]) | MIC Coagulase Negative Staphylococcus (GC 4551) (Staphylococcus sp.; [15]) | MIC Enterococcus avium (GC 4558) (Enterococcus sp.; [17]) | MIC Enterococcus faecalis (ATCC 29212) (Enterococcus sp.; [17]) | MIC Enterococcus faecalis (GC 2242) (Enterococcus sp.; [17]) | MIC Enterococcus faecalis (GC 2691) (Enterococcus sp.; [17]) | MIC Enterococcus faecalis (GC 3059) (Enterococcus sp.; [17]) | MIC Enterococcus faecalis (GC 4552) (Enterococcus sp.; [17]) | MIC Enterococcus faecalis (GC 4553) (Enterococcus sp.; [17]) | MIC Enterococcus faecalis (GC 6189) (Enterococcus sp.; [17]) | MIC Enterococcus faecium (GC 2243) (Enterococcus sp.; [17]) | MIC Enterococcus faecium (GC 4556) (Enterococcus sp.; [17]) | MIC Enterococcus faecium (GC 4557) (Enterococcus sp.; [17]) | MIC Enterococcus faecalis (ATCC 29212) (Enterococcus sp.; strain ATCC 29212) | MIC Enterococcus faecalis (GC 2242) (Enterococcus sp.; strain GC 2242) | MIC Enterococcus faecium (GC 2243) (Enterococcus sp.; strain GC 2243) | MIC Enterococcus faecalis (GC 2691) (Enterococcus sp.; strain GC 2691) | MIC Enterococcus faecalis (GC 3059) (Enterococcus sp.; strain GC 3059) | MIC Enterococcus faecalis (GC 4552) (Enterococcus sp.; strain GC 4552) | MIC Enterococcus faecalis (GC 4553) (Enterococcus sp.; strain GC 4553) | MIC Enterococcus faecium (GC 4556) (Enterococcus sp.; strain GC 4556) | MIC Enterococcus faecium (GC 4557) (Enterococcus sp.; strain GC 4557) | MIC Enterococcus avium (GC 4558) (Enterococcus sp.; strain GC 4558) | MIC Enterococcus faecalis (GC 6189) (Enterococcus sp.; strain GC 6189) | MIC Escherichi coli (GC 4560) (Escherichia coli; strain GC 4560)
>64 µg/mL: MIC Escherichia coli (ATCC 25922) (Escherichia coli; strain ATCC 25922) | MIC Escherichia coli (GC 4559) (Escherichia coli; strain GC 4559)
0.12 µg/mL: MIC Streptococcus pneumoniae (ATCC 6301) (Streptococcus sp.; [17]) | MIC Streptococcus pneumoniae (GC 4565) (Streptococcus sp.; [17]) | MIC Streptococcus pyogenes (GC 4563) (Streptococcus sp.; [17]) | MIC Streptococcus pneumoniae (ATCC 6301) (Streptococcus sp.; strain ATCC 6301) | MIC Streptococcus pyogenes (GC 4563) (Streptococcus sp.; strain GC 4563) | MIC Streptococcus pneumoniae (GC 4565) (Streptococcus sp.; strain GC 4565)
32 µg/mL: MIC Staphylococcus aureus (GC 3051) (Staphylococcus sp.; [1]) | MIC Staphylococcus aureus (GC 3051) (Staphylococcus sp.; [4]) | MIC Enterococcus faecalis (GC 4554) (Enterococcus sp.; [17]) | MIC Enterococcus faecalis (GC 4554) (Enterococcus sp.; strain GC 4554)
<0.06 µg/mL: MIC Streptococcus pneumoniae (GC 1894) (Streptococcus sp.; [17]) | MIC Streptococcus pneumoniae (GC 1894) (Streptococcus sp.; strain GC 1894)

CC(c1ccccc1)C1NC(=O)CNC(=O)C(CO)NC(=O)C(C(O)C2CNC(=N)N2C2OC(CO)C(O)C(O)C2O)NC(=O)C(C(O)C2CNC(=N)N2)NC(=O)C(Cc2ccc(OC3OC(CO)C(OC4OC5COC(c6ccsc6)OC5C(O)C4O)C(O)C3O)cc2)NC1=O (stereo not drawn) [Example 133, Cyclo[glycyl-β-methylphenylalanyl-O-[4-O-[4,6-O-(3-thienylmethylene)hexopyranosyl]-hexopyranosyl]tyrosyl-3-(2-iminoimidazolidin-4-yl)seryl-3-(3-hexopyranosyl-2-iminoimidazolidin-4-yl)serylseryl]]
64 µg/mL: MIC Escherichia coli (ATCC 25922) (Escherichia coli; [18])
4 µg/mL: MIC Staphylococcus aureus (GC 3053) (Staphylococcus sp.; strain GC 3053) | MIC Staphylococcus aureus (GC 3053) (Staphylococcus sp.; [5]) | MIC Streptococcus pneumoniae (GC 4565) (Streptococcus sp.; [1]) | MIC Enterococccus faecalis (GC 6189) (Enterococcus sp.; [1]) | MIC Enterococcus faecalis (GC 2242) (Enterococcus sp.; [1])
8 µg/mL: MIC Enterococccus avium (GC 4558) (Enterococcus sp.; [1]) | MIC Enterococccus faecalis (ATCC 29212) (Enterococcus sp.; [1]) | MIC Enterococccus faecalis (GC 2691) (Enterococcus sp.; [1]) | MIC Enterococccus faecalis (GC 3059) (Enterococcus sp.; [1]) | MIC Enterococccus faecalis (GC 4552) (Enterococcus sp.; [1]) | MIC Enterococccus faecalis (GC 4553) (Enterococcus sp.; [1]) | MIC Enterococccus faecalis (GC 4554) (Enterococcus sp.; [1]) | MIC Enterococccus faecium (GC 2243) (Enterococcus sp.; [1]) | MIC Enterococccus faecium (GC 4556) (Enterococcus sp.; [1])
<0.5 µg/mL: MIC Coagulase Negative Staphylococcus (GC 4548) (Staphylococcus sp.; [1]) | MIC Coagulase Negative Staphylococcus (GC 4548) (Staphylococcus sp.; [13]) | MIC Streptococcus agalactiae (GC 4564) (Streptococcus sp.; [1]) | MIC Streptococcus pneumoniae (GC 1894) (Streptococcus sp.; [1]) | MIC Streptococcus pneumonine (ATCC 6301) (Streptococcus sp.; [1]) | MIC Streptococcus pyogenes (GC 4563) (Streptococcus sp.; [1]) | MIC Escherichia coli (GC 4560) (Escherichia coli; [18])
32 µg/mL: MIC Escherichia coli (GC 4559) (Escherichia coli; [18])
2 µg/mL: MIC Staphylococcus aureus (GC 1131) (Staphylococcus sp.; strain GC 1131) | MIC Staphylococcus aureus (GC 1131) (Staphylococcus sp.; [3]) | MIC Staphylococcus aureus (GC 4542) (Staphylococcus sp.; strain GC 4542) | MIC Staphylococcus aureus (GC 4542) (Staphylococcus sp.; [7]) | MIC Staphylococcus aureus (GC 4544) (Staphylococcus sp.; strain GC 4544) | MIC Staphylococcus aureus (GC 4544) (Staphylococcus sp.; [9]) | MIC Enterococccus faecium (GC 4557) (Enterococcus sp.; [1])
1 µg/mL: MIC Coagulase Negative Staphylococcus (GC 4547) (Staphylococcus sp.; [1]) | MIC Coagulase Negative Staphylococcus (GC 4549) (Staphylococcus sp.; [1]) | MIC Coagulase Negative Staphylococcus (GC 4551) (Staphylococcus sp.; [1]) | MIC Coagulase Negative Staphylococcus (GC 6257) (Staphylococcus sp.; [1]) | MIC Staphylococcus aureus-SMITH (GC 4543) (Staphylococcus sp.; [1]) | MIC Staphylococcus haemolyticus (GC 4546) (Staphylococcus sp.; [1]) | MIC Staphylococcus aureus (ATCC 29213) (Staphylococcus sp.; strain ATCC 29213) | MIC Staphylococcus aureus (ATCC 29213) (Staphylococcus sp.; [2]) | MIC Staphylococcus aureus (GC 3051) (Staphylococcus sp.; strain GC 3051) | MIC Staphylococcus aureus (GC 3051) (Staphylococcus sp.; [4]) | MIC Staphylococcus aureus (GC 4541) (Staphylococcus sp.; strain GC 4541) | MIC Staphylococcus aureus (GC 4541) (Staphylococcus sp.; [6]) | MIC Staphylococcus aureus-SMITH (GC 4543) (Staphylococcus sp.; [8]) | MIC Staphylococcus aureus (GC 4545) (Staphylococcus sp.; strain GC 4545) | MIC Staphylococcus aureus (GC 4545) (Staphylococcus sp.; [10]) | MIC Staphylococcus haemolyticus (GC 4546) (Staphylococcus sp.; [11]) | MIC Coagulase Negative Staphylococcus (GC 4547) (Staphylococcus sp.; [12]) | MIC Coagulase Negative Staphylococcus (GC 4549) (Staphylococcus sp.; [14]) | MIC Coagulase Negative Staphylococcus (GC 4551) (Staphylococcus sp.; [15]) | MIC Coagulase Negative Staphylococcus (GC 6257) (Staphylococcus sp.; [16])
